Reference: PubChem BioAssay (NCI)
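Values below derive from 48-hour exposures of cells grown in 96-well plates, with endpoints linearly interpolated between the two concentrations bracketing the appropriate inhibition level. GI50 = concentration required for 50% inhibition of growth. TGI is the concentration that stops growth completely.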

Tests used:
Assay in all cases: NCI anticancer screen, dose series, 48 h
[1] = system: MDA-MB-435
[2] = system: ACHN renal
[3] = system: KM12 colon
[4] = system: PC-3 prostate
[5] = system: HS 578T breast
[6] = system: NCI-H23 lung
[7] = system: OVCAR-8 ovarian
[8] = system: HOP-92 NSCLC
[9] = system: SNB-75 CNS
[10] = system: SK-MEL-5 melanoma
[11] = system: SR leukemia
[12] = system: U251 CNS
[13] = system: TK-10 renal
[14] = system: HCT-116 colon
[15] = system: SK-MEL-2 melanoma
[16] = system: SK-MEL-28 melanoma
[17] = system: DU-145 prostate
[18] = system: SF-268 CNS
[19] = system: RPMI-8226 leukemia
[20] = system: EKVX NSCLC
[21] = system: SF-295 CNS
[22] = system: A549 NSCLC
[23] = system: HT29 colon
[24] = system: 786-0 renal
[25] = system: HCC-2998 colon
[26] = system: IGROV1 ovarian
[27] = system: HOP-62 NSCLC
[28] = system: MOLT-4 leukemia
[29] = system: M14 melanoma
[30] = system: CAKI-1 renal
[31] = system: T-47D breast
[32] = system: NCI/ADR-RES ovarian
[33] = system: UACC-62 melanoma
[34] = system: NCI-H522 lung
[35] = system: COLO 205 colon
[36] = system: OVCAR-5 ovarian
[37] = system: MALME-3M melanoma
[38] = system: OVCAR-4 ovarian
[39] = system: UACC-257 melanoma
[40] = system: HL-60(TB) leukemia
[41] = system: RXF 393 renal
[42] = system: BT-549 breast
[43] = system: MDA-MB-231 breast
[44] = system: SNB-19 CNS
[45] = system: SK-OV-3 ovarian
[46] = system: LOX IMVI melanoma
[47] = system: SN12C renal
[48] = system: K-562 leukemia
[49] = system: CCRF-CEM leukemia
[50] = system: NCI-H460 lung
[51] = system: SW-620 colon
[52] = system: OVCAR-3 ovarian
[53] = system: HCT-15 colon
[54] = system: UO-31 renal
[55] = system: SF-539 CNS
[56] = system: A498 renal
[57] = system: MCF7 breast
[58] = system: NCI-H226 lung
[59] = system: MDA-N

`CN(C)C(=S)Sc1ccc([N+](=O)[O-])cc1[N+](=O)[O-]` showed a GI50 [1] of 1.54 µM, a TGI [1] of 5.36 µM and a GI50 [2] of 1.67 µM. For the same compound, the TGI [2] was 3.05 µM, the GI50 [3] was 2.81 µM and the TGI [3] was 12.7 µM. The GI50 [4] was 2.17 µM, the TGI [4] was 13.3 µM and the GI50 [5] was 9.95 µM. It also gave a TGI [5] of 56.3 µM, a GI50 [6] of 2.93 µM and a TGI [6] of 11.6 µM. For the same compound, the GI50 [7] was 3.27 µM, the TGI [7] was 12 µM and the GI50 [8] was 2.95 µM. For the same compound, the TGI [8] was 11.2 µM, the GI50 [9] was 7.53 µM and the TGI [9] was 20.5 µM. For the same compound, the GI50 [10] was 1.73 µM, the TGI [10] was 5.82 µM and the GI50 [11] was 0.296 µM. It also gave a TGI [11] of 16.8 µM, a GI50 [12] of 1.58 µM and a TGI [12] of 8.97 µM. For the same compound, the GI50 [13] was 2.29 µM, the TGI [13] was 5.85 µM and the GI50 [14] was 1.54 µM. The TGI [14] was 3.7 µM, the GI50 [15] was 4.21 µM and the TGI [15] was 9.86 µM. The GI50 [16] was 6.75 µM, the TGI [16] was 18.4 µM and the GI50 [17] was 2.59 µM. It also gave a TGI [17] of 6.89 µM, a GI50 [18] of 3.32 µM and a TGI [18] of 15.4 µM. The GI50 [19] was 1.39 µM, the TGI [19] was 6.79 µM and the GI50 [20] was 5.29 µM. The TGI [20] was 19.7 µM, the GI50 [21] was 14.5 µM and the TGI [21] was 29 µM. It also gave a GI50 [22] of 3.21 µM, a TGI [22] of 17.6 µM and a GI50 [23] of 0.325 µM. For the same compound, the TGI [23] was 1.67 µM, the GI50 [24] was 5.3 µM and the TGI [24] was 16 µM. It also gave a GI50 [25] of 6.9 µM, a TGI [25] of 17.4 µM and a GI50 [26] of 1.26 µM. The TGI [26] was 13.1 µM, the GI50 [27] was 8.26 µM and the TGI [27] was 21.3 µM. It also gave a GI50 [28] of 2.04 µM, a TGI [28] greater than 42 µM and a GI50 [29] of 2.5 µM. For the same compound, the TGI [29] was 9.46 µM, the GI50 [30] was 1.58 µM and the TGI [30] was 4.79 µM. For the same compound, the GI50 [31] was 1.56 µM, the TGI [31] was 3.75 µM and the GI50 [32] was 4.73 µM. The TGI [32] was 16.8 µM, the GI50 [33] was 1.71 µM and the TGI [33] was 5.97 µM. It also gave a GI50 [34] of 0.482 µM, a TGI [34] of 1.6 µM and a GI50 [35] of 0.8 µM. The TGI [35] was 3.02 µM, the GI50 [36] was 6.01 µM and the TGI [36] was 18.1 µM. For the same compound, the GI50 [37] was 1.38 µM, the TGI [37] was 3.17 µM and the GI50 [38] was 1.61 µM. It also gave a TGI [38] of 13.9 µM, a GI50 [39] of 1.75 µM and a TGI [39] of 4.9 µM. It also gave a GI50 [40] of 2.68 µM, a TGI [40] of 8.54 µM and a GI50 [41] of 3.83 µM. The TGI [41] was 8.3 µM, the GI50 [42] was 3.22 µM and the TGI [42] was 9.93 µM. For the same compound, the GI50 [43] was 3.04 µM, the TGI [43] was 11.9 µM and the GI50 [44] was 11 µM. For the same compound, the TGI [44] was 25.1 µM, the GI50 [45] was 12 µM and the TGI [45] was 31.2 µM. For the same compound, the GI50 [46] was 1.53 µM, the TGI [46] was 3.63 µM and the GI50 [47] was 3.24 µM. It also gave a TGI [47] of 11.2 µM, a GI50 [48] of 1.06 µM and a TGI [48] of 25.6 µM. It also gave a GI50 [49] of 0.406 µM, a TGI [49] greater than 43.6 µM and a GI50 [50] of 0.74 µM. The TGI [50] was 4.57 µM, the GI50 [51] was 1.1 µM and the TGI [51] was 2.79 µM. It also gave a GI50 [52] of 0.99 µM, a TGI [52] of 2.49 µM and a GI50 [53] of 1.46 µM. The TGI [53] was 4.2 µM, the GI50 [54] was 1.79 µM and the TGI [54] was 6.29 µM. For the same compound, the GI50 [55] was 3.8 µM, the TGI [55] was 14.6 µM and the GI50 [56] was 9.47 µM. For the same compound, the TGI [56] was 22 µM, the GI50 [57] was 0.777 µM and the TGI [57] was 5.03 µM. The GI50 [58] was 4.33 µM and the TGI [58] was 17.5 µM.

Compound `Cc1cc(C(F)(F)F)cc(-n2nc(NS(=O)(=O)c3cc(C)c(Cl)cc3S)nc2N)n1` has a TGI [1] greater than 100 µM, a TGI [2] greater than 100 µM and a TGI [3] greater than 100 µM. For the same compound, the TGI [4] was greater than 100 µM, the TGI [5] was greater than 100 µM and the TGI [7] was greater than 100 µM. The TGI [8] was greater than 100 µM, the TGI [9] was greater than 100 µM and the TGI [10] was greater than 100 µM. It also gave a TGI [11] greater than 100 µM, a TGI [59] greater than 100 µM and a TGI [12] greater than 100 µM. For the same compound, the TGI [13] was greater than 100 µM, the TGI [14] was greater than 100 µM and the TGI [15] was greater than 100 µM. The TGI [16] was greater than 100 µM, the TGI [18] was greater than 100 µM and the TGI [19] was greater than 100 µM. For the same compound, the TGI [20] was greater than 100 µM, the TGI [21] was greater than 100 µM and the TGI [22] was greater than 100 µM. The TGI [23] was greater than 100 µM, the TGI [24] was greater than 100 µM and the TGI [25] was greater than 100 µM. For the same compound, the TGI [26] was greater than 100 µM, the TGI [27] was greater than 100 µM and the TGI [28] was 69.5 µM. For the same compound, the TGI [29] was greater than 100 µM, the TGI [30] was greater than 100 µM and the TGI [31] was greater than 100 µM. The TGI [32] was 94.1 µM, the TGI [33] was greater than 100 µM and the TGI [34] was 91.5 µM. The TGI [35] was greater than 100 µM, the TGI [37] was greater than 100 µM and the TGI [38] was greater than 100 µM. For the same compound, the TGI [39] was greater than 100 µM, the TGI [40] was 77.8 µM and the TGI [41] was greater than 100 µM. The TGI [43] was greater than 100 µM, the TGI [44] was greater than 100 µM and the TGI [45] was greater than 100 µM. The TGI [46] was greater than 100 µM, the TGI [47] was greater than 100 µM and the TGI [48] was greater than 100 µM. It also gave a TGI [49] of 54.1 µM, a TGI [50] of 70.7 µM and a TGI [51] greater than 100 µM. For the same compound, the TGI [52] was greater than 100 µM, the TGI [53] was greater than 100 µM and the TGI [56] was 56.1 µM. It also gave a TGI [57] greater than 100 µM and a TGI [58] greater than 100 µM.
